In test [1] the test system is AT2078 cells of patients with ataxia telangiectasia. As to the kind of experiment: Damage to DNA in AT2078 cells: histone H2AX Ser139 foci after expression of GSE4 or SGSE4. It counts as cell-based, human. How it is done:
FIG. 14. Determination of damage to DNA in AT cells after transfecting peptides GSE4 and SGSE4: AT2078 AT cells were infected with a lentiviral vector expressing GSE4, SGSE4 or a GFP empty vector and 24 hours later were fixed for processing and hybridised with an antibody against phosphorylated histone H2AX (Ser139). Control C-1787 cells were used as the negative control. Next they were hybridised with a fluorescein-labelled antibody and were stained with DAPI to locate the nuclei.
As the peptide denominated GSE4 was the smallest sized of the peptides with ability to inhibit damage to DNA, we studied if another peptide with a similar sequence localised in the sequence of peptide GSE24.2 had the same activity or if that activity was specific to GSE4. Peptide SGSE4 (SEQ ID No. 15) is similar to GSE4 in sequence (amino acids LDPK/LDKP that constitute consensus sequences for pseudouridine synthases) and size and is found in the TRUBII domain of dyskerin. Cell lines AT2078 of patients with ataxia telangiectasia were used for this test. Cell line C-1787 was used as the control cell line. The cells were infected with the bicistronic lentiviral vector pCMV-GFP-GSE4, SGSE4 or GFP. After 48 hours of infection the cells were fixed with formaldehyde and then permeabilized by treating them with Triton X-100. The damage to DNA was estimated by studying the signal after hybridisation of the cells with an antibody against histone H2AX Ser139 and subsequent hybridisation with an antibody bound to fluorescein. The number of foci with stain for histone H2AX per nucleus was determined by confocal microscopy in a total of 200 cells and the data represented as a percentage of cells with a specific number of foci.

The subject of test [2] is HeLa cells. As to the kind of experiment: Internalisation of fluorescein-labelled peptides, confocal fluorescence microscopy. Format: cell-based. How it is done:
FIG. 21. Transfection of peptides GSE4 and GSE4NLS1 in HeLa cells. Peptides GSE4 and GSE4NLS1 (SEQ ID No. 7) labelled with fluorescein and obtained by chemical synthesis were transfected into HeLa cells using the Proteojuice reagent and viewed in a confocal fluorescence microscope at 9, 24 and 48 hours after transfection.
FIG. 22. Internalisation of peptides GSE4 and GSE4NLS1 in HeLa cells. Peptides GSE4 and GSE4NLS1 (SEQ ID No. 7) labelled with fluorescein and obtained by chemical synthesis were added to the culture medium of HeLa cells and viewed in a confocal fluorescence microscope at 9, 24 and 48 hours after transfection.
Given the ability of sequence NLS1 to contribute to the activity of GSE24.2, a synthetic peptide into which this sequence was placed in the 3′ region of peptide GSE4 was constructed as this was the peptide for which the greatest telomerase activation was obtained. The peptides obtained by chemical synthesis were labelled with fluorescein to facilitate their visualisation in a fluorescence microscope. Two experiments were performed in parallel, in one the peptides were transfected using Proteojuice reagent and in the other they were added directly to the culture medium. […] An important difference observed was that when the peptides were added directly to the culture medium, the peptide entered into a higher number of cells than when Proteojuice was used. The reagent provided greater effectiveness for internalisation but into a small number of cells.

Test [3] relates to p38 MAP kinase (phosphorylated on Thr180/Try182) in AT719 cells. The experiment in a line: Levels of phosphorylated p38 by Western blot in AT cells. It counts as cell-based, human. To be noted: three weeks after infection, control AT736 = 1. From the text:
FIG. 4. Determination of the levels of phosphorylation of p38 in AT cells: AT719-P AT cells were infected with a lentiviral vector expressing GSE24.2 or a GFP empty vector and three weeks later protein extracts were obtained. AT719-P AT cells infected with GSE24.2 were also used and the population with the maximum fluorescence was selected using a sorter (AT AT719-P GSE24.2 sorter). AT736C cells were used as a control. The proteins were resolved on polyacrylamide gels and transferred to nitrocellulose membranes. The membrane was hybridised with a polyclonal antibody against the protein p38 phosphorylated on Thr180/Try182 and non-phosphoryated protein as a loading control. The relative values between the phosphorylated and non-phosphorylated proteins obtained (using the NIH-Image program) for the control cell line were considered as 1 and the others referred to it.
One of the characteristics of AT patient cells is a higher activation of p38 MAP kinase due to the failure of function of the ATM protein. This increase in activation of p38 triggers the process of cell death in AT cells and therefore a reduction in the number of neuronal cells. […] The signal obtained in both hybridisations was quantified with the NIH-Image program and relative values between the phosphorylated and non-phosphorylated proteins obtained for the control cell line were considered as 1.
For orientation: Immunoblotting shows a protein as a band on a membrane.

The subject of test [4] is AT3189-P AT lymphoblasts. The experiment in a line: ROS levels by DHE and flow cytometry in AT lymphoblasts. To be noted: AT3189-P cells, three weeks after infection, DHE, versus AT736C control cells. Format: cell-based, human. Here is the method:
FIG. 3. Determination of ROS levels in AT cells: AT3189-P AT cells were infected with a lentiviral vector expressing GSE24.2 or a GFP empty vector and three weeks later were loaded with the DHE reagent that detects Reactive Oxygen Species (ROS) levels. AT736C cells were used as a control. Relative fluorescence of the three cell lines and the proportion of cells with maximum intensity were determined through flow cytometry using wavelengths of 518 nm absorption and 605 nm emission. The data are shown as relative percentage of cells that emit at this wavelength.
One of the characteristics of AT cells is an increase in free radical content. This is due to the failure of function of protein ATM, which is able to maintain the redox balance in normal cells when the cells are exposed to environmental stress such as in vitro culture. In order to verify if expression of GSE24.2 has some impact on the regulation of free radical levels, we used the compound dihydroethidium (Hydroethidine), which enables quantifying the levels of free radicals in living cells. […] Three weeks after infection, the cells were loaded with the DHE reagent for 30 minutes and the proportion of cells with different free radical content was determined by flow cytometry.
(In general: Flow cytometry measures light scatter and fluorescence of single cells or particles in a stream.)

Two sequences from patent US20160340656A1, “PEPTIDES DERIVED FROM GSE 24.2 FOR TREATING DISEASES CAUSED BY OXIDATIVE STRESS AND DAMAGE TO DNA” (CONSEJO SUPERIOR DE INVESTIGACIONES CIENTÍFICAS (CSIC), priority 2013, published 2016) can be followed below.

With GFINLDKPSNP [GSE4], in test [1], the “overall correction of damage to DNA” value was found to be 60%. For the same sequence, in test [1] (200 cells), the “AT cells in which overall damage to DNA is corrected” value is 38%. Also, the entry into cells entry in test [2] (peptide simply added to the culture medium) and in test [2] (transfected using Proteojuice reagent) was “entered the cells” in each case.
As to “GFINLDKPSNPSSHEVVAWIRRILRVEKTGHSGTLDPKVTGCLIVCIERATRLVK (GSE24.2; listed as Homo sapiens) [55-amino-acid peptide corresponding to the protein dyskerin; known from WO2007/090911]”, the “phosphorylated / non-phosphorylated p38 relative value” in test [3] is recorded as “reduced significantly to levels similar to control cells”. Moreover, the ROS levels entry in test [4] was “reduced in AT3189-P GSE24.2 cells to values comparable to those found in the AT736C control cells”.
